# Measured values published in patent US9097673B2, “Processes and kits for determining multi-drug resistance of cells” (ENZO LIFE SCIENCES, INC., priority 2010, dated 2015).
# Legend:
# Assay in all cases: Dye uptake flow cytometry MDR assay;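 for D-values Post Inhibitor Treatment (compared to uninhibited cells), CsA: flow cytometry of dye-loaded cells, Kolmogorov-Smirnov D value (0 to 1.0) comparing fluorescence with versus without inhibitor, made negative when the uninhibited control was brighter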;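 for D-values Post Inhibitor Treatment (compared to uninhibited cells), FTC: flow cytometry of dye-loaded cells, Kolmogorov-Smirnov D value (0 to 1.0) comparing fluorescence with versus without inhibitor, made negative when the uninhibited control was brighter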;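 for D-values Post Inhibitor Treatment (compared to uninhibited cells), MK-571: flow cytometry of dye-loaded cells, Kolmogorov-Smirnov D value (0 to 1.0) comparing fluorescence with versus without inhibitor, made negative when the uninhibited control was brighter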
# [1] = tested on: CHO K1 cell line; format: cell-based, hamster; details: for D-values, Cyclosporin A / D-values, Novobiocin / D-values, Probenecid / D-values, Verapamil / MAF, Cyclosporin A / MAF, Novobiocin / MAF, Probenecid / MAF, Verapamil: Fluo-8 AM probe, dye uptake;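 for all read-outs here: flow cytometry of dye-loaded cells, Kolmogorov-Smirnov D value (0 to 1.0) comparing fluorescence with versus without inhibitor, made negative when the uninhibited control was brighter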
# Experimental: Concentrations of the modulators used in the experiments were non-toxic to the cells (based upon standard 3-(4,5-Dimethylthiazol-2-Yl)-2,5-Diphenyltetrazolium Bromide (MTT) testing, data not shown). Fluo-8™ was used in all experiments at 5 μM, and Rhod-4™—at 4 μM final concentrations.
# Kolmogorov-Smirnov statistics measures the difference between two distribution functions and generates a D value ranging between 0 and 1.0, with higher values indicating a greater difference between the distribution functions. The D value generated by the KS statistics was modified by ascribing a negative value if the fluorescence of a negative control (no inhibitor) was brighter than the fluorescence of the sample with inhibitor.
# [2] = tested on: HCT-8 cells; format: cell-based, human; set-up: key: Kolmogorov-Smirnov D statistic comparing fluorescence distributions; details: HCT-8, dye uptake
# Experimental: (§1) Cells were grown on tissue culture dishes and on the day of assay were trypsinized and washed twice with warm (37° C.) phosphate-buffered saline (PBS). Post-wash, the cells were re-suspended in warm phenol red indicator-free medium at a density of 1×10^6/ml. For each detection set, sixteen tubes (5 samples in triplicates plus non-stained control for background fluorescence) in numbered tubes each containing 5×10^5/cells (0.5 ml) were prepared. […] After incubation for 5 min at 37° C., 0.25 ml of warm medium with Fluo-8™ AM probe (5 μM final concentration) or Rhod-4™ AM probe (2 μM final concentration) was added to each tube excluding non-stained control that receives plain medium and cells were incubated for 30 min at 37° C. and analyzed immediately by flow cytometry. In the second set of the tubes, the reaction was stopped by rapid centrifugation (1 min) at relatively low speed (200×g). After wash with ice-cold PBS and discarding the supernatant, cells were re-suspended in 0.5 ml of ice-cold medium and kept on ice until flow cytometry analysis. The third set of cells simply was spun down (1 min, 200×g) to remove the excess of the probe, resuspended in ice-cold medium and kept on ice until flow cytometry analysis.
# (§2) Flow cytometry experiments were performed using a FACS Calibur benchtop flow cytometer (BD Biosciences) equipped with a blue (488 nm) laser, and the signals were registered in the FITC (530/30 filter), PE (585/42 filter) and PerCP (670 LP filter) channels. Fluo-8™ dye fluorescence was measured in the FL1 channel, and Rhod-4™ dye fluorescence—in the FL2 channel. Flow cytometry data were analyzed by comparison of median fluorescence or using Kolmogorov-Smirnov statistics [Young, J Histochem Cytochem 25:935-941 (1977)] or by calculating MAF values (MDR Activity Factor) using the following formula: MAF=100*((MFIinh−MFI0)/MFIinh), where MFIinh and MFI0 are mean fluorescence intensity values measured in the presence and absence of inhibitor [Hollo et al., Biochem Piophys Acta. 1191:384-388 (1994)].
# (§3) Both human ileocecal colorectal carcinoma cell line HCT-8 (reported to over-express P-gp and, to a lesser extent, MRP [Hunter et al., Br J Cancer. 64:437-444 (1991); Collington et al., Biochem Pharmacol 44:417-424 (1992)] and hepatocellular carcinoma Hep G2 (reported to over-express MRP [Roelofsen et al., Gastroenterology 112:511-521 (1997), Cantz et al., Am J Physiol Gastrointest Liver Physiol. 278:G522-G531 (2000)] were obtained from ATCC. HCT-8 cells were routinely cultured in RPMI-1640 Medium with 2 mM L-glutamine, 10 mM HEPES, 1 mM sodium piruvate, 4.5 g/L glucose, 1.5 g/L sodium bicarbonate (ATCC), supplemented with 10% horse serum (ATCC) and 100 U/ml penicillin, 100 ug/ml streptomycin (Sigma-Aldrich, St. Louis, Mo.). Hep G2 cells were routinely cultured in Eagle's Minimum Essential Medium with low glucose (ATCC), supplemented with 10% heat inactivated fetal bovine serum (ATCC) and 100 U/ml penicillin, 100 ug/ml streptomycin (Sigma-Aldrich, St. Louis, Mo.). Cell cultures were maintained in a humidified incubator at 37° C., with 5% CO2 atmosphere. Stock solutions of the probes and inhibitors were prepared, as described in Examples 2 and 3. Cells were grown in tissue culture dishes and on the day of assay were treated according to a dye uptake protocol and analyzed by flow cytometry, as described in Example 3.
# [3] = tested on: Hep G2 cells; format: cell-based, human; set-up: key: Kolmogorov-Smirnov D statistic comparing fluorescence distributions; details: HepG2, dye uptake
# Experimental: as §1, §2, §3
# [4] = CHO K1, dual probes Fluo-8 AM (FL1) + Pheophorbide A (FL3)
# [5] = CHO K1, dye uptake, average of three independent experiments (Table 10)
# [6] = CHO K1, dye uptake, average of three representative experiments (Table 6)
# [7] = CHO K1, dye uptake, representative experiment (Table 8)
smiles,measurement,setting,value
CC(=O)OCOC(=O)CN(CC(=O)OCOC(C)=O)c1ccccc1OCCOc1cc(-c2c3ccc(=O)cc-3oc3cc(OCOC(C)=O)ccc23)ccc1N(CC(=O)OCOC(C)=O)CC(=O)OCOC(C)=O [Fluo-8 ™ AM],"D-values Post Inhibitor Treatment (compared to uninhibited cells), CsA",[1]; [4],0.94
same,"D-values Post Inhibitor Treatment (compared to uninhibited cells), FTC",[1]; [4],0.56
same,"D-values Post Inhibitor Treatment (compared to uninhibited cells), MK-571",[1]; [4],0.98
same,"D-values Post Inhibitor Treatment (compared to uninhibited cells), Verapamil",[1]; [4],0.9
same,"D-value, Cyclosporine A",[1]; [5],0.89
same,"D-value, FTC",[1]; [5],0.28
same,"D-value, MK-571",[1]; [5],0.95
same,"D-value, Novobiocin",[1]; [5],0.68
same,"D-value, Verapamil",[1]; [5],0.74
same,"D-value, Fumitremorgan C",[1]; [6],0.48
same,"D-value, Probenecid",[1]; [6],0.69
same,"D-value, Verapamil",[1]; [6],0.84
same,"D-value, Cyclosporine A",[1]; [7],0.96
same,"D-value, Novobiocin",[1]; [7],0.78
same,"D-value, Probenecid",[1]; [7],0.89
same,"D-value, Verapamil",[1]; [7],0.83
same,"D-values, Cyclosporin A",[1]; No Wash,0.97
same,"D-values, Novobiocin",[1]; No Wash,0.98
same,"D-values, Probenecid",[1]; No Wash,0.9
same,"D-values, Verapamil",[1]; No Wash,0.81
same,"MAF, Cyclosporin A",[1]; No Wash,93.0
same,"MAF, Novobiocin",[1]; No Wash,93.5
same,"MAF, Probenecid",[1]; No Wash,85.4
same,"MAF, Verapamil",[1]; No Wash,77.6
same,"D-values, Cyclosporin A",[1]; Spin,0.94
same,"D-values, Novobiocin",[1]; Spin,0.97
same,"D-values, Probenecid",[1]; Spin,0.9
same,"D-values, Verapamil",[1]; Spin,0.76
same,"MAF, Cyclosporin A",[1]; Spin,91.5
same,"MAF, Novobiocin",[1]; Spin,92.4
same,"MAF, Probenecid",[1]; Spin,85.0
same,"MAF, Verapamil",[1]; Spin,73.0
same,"D-values, Cyclosporin A",[1]; Wash,0.94
same,"D-values, Novobiocin",[1]; Wash,0.94
same,"D-values, Probenecid",[1]; Wash,0.87
same,"D-values, Verapamil",[1]; Wash,0.76
same,"MAF, Cyclosporin A",[1]; Wash,91.6
same,"MAF, Novobiocin",[1]; Wash,91.3
same,"MAF, Probenecid",[1]; Wash,86.2
same,"MAF, Verapamil",[1]; Wash,73.5
same,"D-value, CyclosporinA",[2],0.68
same,"D-value, MK-571",[2],0.34
same,"D-value, Novobiocin",[2],0.22
same,"D-value, Verapamil",[2],0.71
same,"D-value, CyclosporinA",[3],0.28
same,"D-value, MK-571",[3],0.34
same,"D-value, Novobiocin",[3],0.13
same,"D-value, Verapamil",[3],0
